From US4133826A, “Novel inversion process” (Roussel UCLAF, priority 1976, dated 1979) come the findings set out here.

Test [1] deals with domestic flies (houseflies). Description: Activity against houseflies (topical application). The settings on record: for % dead after 24 hours: 1 μl acetone solution, dorsal thorax. The class given is in vivo, domestic flies of mixed sexes. The protocol: A. Activity against houseflies
The insecticidal tests were effected on domestic flies of mixed sexes by applying a topical solution of 1 μl of acetone solution of (S) α-cyano-3-phenoxybenzyl 2,2-dimethyl-3R-(2,2-dichlorovinyl)-cyclopropane-1R-carboxylate (product A) to the dorsal thorax of the flies. 50 flies were used for each test and the results were determined as the LD50, dose at which 50% of the flies were dead 24 hours after treatment.

Test [2] relates to Spodoptera Littoralis larvae. Put plainly: Activity against Spodoptera Littoralis larvae (topical application). In kind it is in vivo. The settings on record: for % dead after 24 h / % dead after 48 h: 1 μl acetone solution. The protocol:
B. Activity against Spodoptera Littoralis larvae
This test was effected by topical application of 1 μl of an acetone solution of product A on the dorsal thorax of each larva and for each test, 15 caterpillers of Spodoptera Littoralis in the 4th larva stage were used. After treatment, the individuals were placed in an artificial nutritive media (Poitot medium) and the number of dead caterpillers was determined 24 and 48 hours after the treatment to determine the LD50 dose.

The next test has as its system insects. Description: Insecticidal activity (general statement). The class given is in vivo. The settings on record: in words.

Take `CC1(C)[C@H](C(=O)O[C@H](C#N)c2cccc(Oc3ccccc3)c2)[C@@H]1C=C(Cl)Cl` [product A, (S) α-cyano-3-phenoxybenzyl 2,2-dimethyl-3R-(2,2-dichlorovinyl)-cyclopropane-1R-carboxylate]: the “% dead after 24 hours” value in test [1] (dose 0.625 ng, topical) was 10.0%; in test [1] (dose 1.25 ng, topical), 34.5%; in test [1] (dose 2.5 ng, topical), 68.0%; in test [1] (dose 3.75 ng, topical), 83.2%; in test [1] (dose 5 ng, topical), 93.3%. Moreover, the LD50 in test [1] (dose at which 50% of the flies were dead 24 hours after treatment, topical) came out at 1.6 ng. Besides, in test [1] (in words, experimental tests), the “effective against domestic flies” value was “effective against domestic flies”. Further, in test [1] (in words, from Table I), the “insecticidal activity against houseflies” value is “very high insecticidal activity”. Moreover, the “% dead after 24 h” value in test [2] (dose 0.1562 ng, topical, dorsal thorax, 4th larva stage) worked out at 20.5%; in test [2] (dose 0.3125 ng, topical, dorsal thorax, 4th larva stage), 48.9%; in test [2] (dose 0.625 ng, topical, dorsal thorax, 4th larva stage) it was 80.0%; in test [2] (dose 1.25 ng, topical, dorsal thorax, 4th larva stage), 95.6%. The “% dead after 48 h” value was found to be 27.3% in test [2] (dose 0.1562 ng, topical, dorsal thorax, 4th larva stage, 48 h); 62.2% in test [2] (dose 0.3125 ng, topical, dorsal thorax, 4th larva stage, 48 h); 82.2% in test [2] (dose 0.625 ng, topical, dorsal thorax, 4th larva stage, 48 h); 97.8% in test [2] (dose 1.25 ng, topical, dorsal thorax, 4th larva stage, 48 h). For the same molecule, the “effective against larvae of Spodoptera Littoralis” value in test [2] (in words, experimental tests) is “effective”. Further, the “LD50 at 48 h” value in test [2] (topical, dorsal thorax, 4th larva stage, 48 h) is 0.3 ng. In addition, the insecticidal activity entry in the test with insects is “excellent insecticidal activity”.
